These results are taken from patent publication US20240216362A1, “BENZOTHIAZOLE AND QUINOLINE DERIVATIVES FOR USE IN TREATING KAWASAKI DISEASE” (Shanghai Yao Yuan Biotechnology Co., Ltd., priority 2021, published 2024).

The target of assay [1] is T237M hALPK1 mutant (HEK293 A2 cells) (Homo sapiens (Human), UniProt Q96QP1, T237M). Description: Inhibition of IL-8 secretion in cells expressing T237M ALPK1 mutant. In kind it is cell-based. The settings on record: 40 hours, relative to wild-type HEK293 cells. How it is done:
(§1) HEK293 cells were cultured as described above prior to transient transfection with either empty vector or an expression vector encoding (i) human ALPK1 (hALPK1), (ii) hALPK1 with the T237M activating mutation (hALPK1-T237M) (iii) hALPK1 with the V1092A activating mutation (hALPK1-V1092A), or (iv) a kinase dead ALPK1 mutant (hALPK1-T237M-D1194S). Transfection was performed according to manufacturer's protocols (Lipofectamine™ 3000, ThermoFisher). Transfected cells were selected, seeded onto 96-well plates and treated with serial dilutions of the test compounds for 6.5 hr. Following treatment, cell viability was determined using a luminescent cell viability assay (Cell Counting-Lite Assay or “CCL Assay” from Vazyme Biotech Co., Ltd.) and cell free supernatants were collected and analyzed for IL-8 protein by IL-8 ELISA as described above. […] As shown in the figure, very little IL-8 was detectable in cells transfected with any of the empty vector, hALPK1, or the kinase dead hALPK1 mutant. In contrast, both of the activating mutations in hALPK1 induced significant IL-8 secretion.
Next, we tested a representative set of compounds for inhibition of IL-8 secretion in cells expressing each of the activating ALPK1 mutants. T237M and V1092A. […] For the T237M mutant study, we produced an HEK293 cell line (“A2”) stably expressing the T237M hALPK1 mutant. A2 cells were cultured in the presence of test compound (6 uM) for 40 hours total. Fresh medium and compound were added at 24 hours. Cell viability and IL-8 secretion were determined 16 hours after the second addition of compound, using the CCL assay and IL-8 ELISA as described above.

In assay [2] the target is hALPK1-V1092A (transiently transfected HEK293 cells) (Homo sapiens (Human), UniProt Q96QP1, V1092A). The experiment in a line: Inhibition of IL-8 secretion in cells expressing V1092A ALPK1 mutant. The settings on record: 24 hours, relative to wild-type HEK293 cells. The class given is cell-based. How it is done: as §1
hALPK1-V1092A (transiently transfected HEK293 cells), sequence (Q96QP1 whole entry V1092A): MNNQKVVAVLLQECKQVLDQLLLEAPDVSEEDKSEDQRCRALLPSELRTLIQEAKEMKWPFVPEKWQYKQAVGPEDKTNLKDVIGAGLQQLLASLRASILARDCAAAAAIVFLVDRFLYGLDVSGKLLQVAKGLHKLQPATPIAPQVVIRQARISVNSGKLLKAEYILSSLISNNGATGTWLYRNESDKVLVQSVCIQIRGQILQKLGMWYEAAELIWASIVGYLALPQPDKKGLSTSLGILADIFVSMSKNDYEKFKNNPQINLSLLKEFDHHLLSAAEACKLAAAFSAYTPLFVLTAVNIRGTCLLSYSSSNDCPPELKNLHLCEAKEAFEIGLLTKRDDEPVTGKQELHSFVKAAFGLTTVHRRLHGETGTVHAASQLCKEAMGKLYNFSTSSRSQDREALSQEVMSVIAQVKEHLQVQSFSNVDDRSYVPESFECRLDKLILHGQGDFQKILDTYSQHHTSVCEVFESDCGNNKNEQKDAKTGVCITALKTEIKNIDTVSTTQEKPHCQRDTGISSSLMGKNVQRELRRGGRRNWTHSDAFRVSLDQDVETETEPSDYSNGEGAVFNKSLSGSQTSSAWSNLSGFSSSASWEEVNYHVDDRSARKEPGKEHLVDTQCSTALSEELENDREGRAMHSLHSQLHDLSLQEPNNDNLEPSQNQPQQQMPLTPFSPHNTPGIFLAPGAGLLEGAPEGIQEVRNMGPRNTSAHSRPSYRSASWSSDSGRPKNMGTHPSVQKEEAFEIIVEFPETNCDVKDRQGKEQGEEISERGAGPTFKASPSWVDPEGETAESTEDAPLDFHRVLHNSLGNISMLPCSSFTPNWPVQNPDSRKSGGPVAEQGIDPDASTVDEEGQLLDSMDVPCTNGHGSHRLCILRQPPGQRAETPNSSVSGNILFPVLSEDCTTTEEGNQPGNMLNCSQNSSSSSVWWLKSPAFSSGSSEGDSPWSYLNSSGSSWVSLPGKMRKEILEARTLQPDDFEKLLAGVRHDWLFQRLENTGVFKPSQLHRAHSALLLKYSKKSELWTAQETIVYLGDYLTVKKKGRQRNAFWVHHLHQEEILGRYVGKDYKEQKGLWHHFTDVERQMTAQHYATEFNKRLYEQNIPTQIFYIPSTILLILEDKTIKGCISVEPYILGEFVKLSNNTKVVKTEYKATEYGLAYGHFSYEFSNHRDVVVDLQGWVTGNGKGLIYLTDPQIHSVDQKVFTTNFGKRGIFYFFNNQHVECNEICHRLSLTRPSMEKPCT
For the V1092A mutant study shown in Table 4, HEK293 cells were transiently transfected with hALPK1-V1092A or hALPK1 (wildtype) expression vectors and then treated with test compounds for 24 hours. Fresh medium and compound were added at 18 hours. Cell viability and IL-8 secretion were determined 6 hours after the second addition of compound, using the CCL assay and IL-8 ELISA as described above.

The target in assay [3] is ALPK1 (Homo sapiens (Human), UniProt Q96QP1). Description: ALPK1 in vitro kinase assay (HTRF, TIFA phosphorylation). In kind it is biochemical. To be noted: ADP-Heptose activated ALPK1, TIFA substrate. How it is done:
ALPK1 kinase activity was measured in an in vitro assay using ADP-Heptose as the ALPK1 ligand and activator of its kinase activity and TIFA protein as the ALPK1 phosphorylation substrate. Since phosphorylated TIFA proteins oligomerize, Homogeneous Time-Resolved Fluorescence (HTRF) was used to measure protein:protein interaction between HA-tagged TIFA proteins as an indicator of TIFA phosphorylation.
In brief, dose-response studies were performed with HEK293 cells cultured in Dulbecco's Modified Eagle Medium (DMEM) supplemented 10% fetal bovine serum (FBS, Hyclone™) containing antibiotics (pen/strep, G418) in 384-well assay plates. Each well contained 0.1 mg TIFA, ALPK1 (2 nM final concentration in reaction mixture) and kinase buffer (100 mM of HEPES pH 7.4, 4 mM DTT, 40 mM MgCl2, 20 mM of β-Glycerol phosphate disodium salt, 0.4 mM of Na3VO4, 0.16 mg/mL). […]
For HTRF, samples were incubated with a Tb cryptate-labeled anti-HA antibody for capturing HA-tagged proteins according to the manufacturer's instructions (PerkinElmer™, CisBio™) and the fluorescence signal was quantified (Tecan Infinite F NANO+). HTRF signals were calculated as the HTRF ratio (ratio of fluorescence measured at 665 nm and 620 nm)×104 (thereby using the signal at 620 nm as an internal standard).
IC50 values were determined using 3- or 4-parameter logistic equation using GraphPad Prism version 6.00. […]
A general note: Time-resolved FRET reads energy transfer from a long-lived donor to a nearby acceptor.

For assay [4], the system named is IL1β mRNA induced by ALPK1 activation in THP-1-derived macrophages. The experiment in a line: PMA-differentiated THP-1 cell based assay (IL1β mRNA). The settings on record: Homo sapiens; PMA-differentiated THP-1 cells, ALPK1 agonist stimulation 4 h; read-out: IC50 for inhibition of IL1β mRNA. How it is done:
Peripheral blood mononuclear cells (PBMCs) from Kawasaki patients show activation of ALPK1-TIFA-IL10μ pathway. We evaluated the ability of ALPK1 inhibitors to suppress IL1β levels following ALPK1 activation in THP-1-derived macrophage cells in which the ALPK1-TIFA-IL1P pathway is activated by an ALPK1 agonist, D-glycero-D-manno-6-fluoro-heptose-1β-S-A DP.
THP-1 cells were cultured in RPMI 1640 containing 10% heat inactivated FBS, penicillin (100 units/ml) and streptomycin (100 μg/ml), and maintained in a humidified incubator with 95% atmospheric air and 5% CO2. Prior to the experiment, THP-1 cells were seeded into 24-well flat-bottom plate at a cell density of […]. Phorbol myristate acetate (PMA; 50 ng/ml) was used to treat THP-1 cells for 48 h, and then THP-1-derived macrophages were obtained. Following treatment THP-1 cells were pretreated with serially diluted compounds for 2 hours and then stimulated with D-glycero-D-manno-6-fluoro-heptose-1β-S-ADP for 4 h. […] The mRNA expression levels IL1β were detected by SYBR green gene expression assays. […] Relative expression was calculated by comparing to vehicle control and the values were plotted as fold induction. All activity results were expressed as the mean of triplicate determinations. IC50 was determined from dose response curve using Prism Software, version 6.00 from GraphPad Software.

Assay [5] deals with ALPK1-dependent innate immunity gene expression. The experiment in a line: Inhibition of ALPK1 in coronary artery, aorta and heart muscle (innate immunity gene mRNA). The class given is in vivo, Sprague-Dawley (SD) rats. To be noted: SD rats, 40 mpk oral, 2 h before ALPK1 agonist ip, tissue 3 h after agonist, compared with vehicle group. The source says:
To examine if ALPK1 inhibitors can suppress innate immunity genes activated upon ALPK1 activation, SD rats were orally administered compound T007 and gene expression of innate immunity genes was activated by intraperitoneal administration of the ALPK1 agonist, D-glycero-D-manno-6-fluoro-heptose-1β-S-ADP. The coronary artery, aorta and heart muscle tissues were examined for inhibition of ALPK1 inhibitors on innate immunity gene expression.
Twenty male Sprague-Dawley (SD) rats were randomly divided into four groups. A first control group (“normal”) was administered vehicle (0.5% MC) orally, followed 2 hours later with PBS administered by intraperitoneal injection (ip). A second control group (“vehicle”) was administered vehicle (0.5% MC) orally, followed 2 hours later by ip administration of the ALPK1 agonist, D-glycero-D-manno-6-fluoro-heptosc-1β-S-ADP (50 ppk). Treatment groups were administered ALPK1 inhibitors (40 mpk) orally, followed 2 hours later by ip administration of the ALPK1 agonist. The coronary artery, cardiac muscle and aorta from each group were collected 3 hours after administration of the ALPK1 agonist. RNA was isolated and samples were analyzed by RT-PCR for expression of MCP-1 (CCL-2), CCL-7, CXCL-1, CXCL-11, CXCL-10, IL-1β, CCL-5, TNF-α, and IL-6 mRNA. Briefly, total RNA was extracted following the protocol of the Rneasy Mini Kit (QIAGEN, Germany). Messenger RNA was reverse transcribed to cDNA using HiScript Q RT SuperMix for qPCR Kit (Vazyme, Nanjing, China). Quantitative PCR was conducted using AceQ qPCR SYBR Green Master Mix Kit (Vazyme, Nanjing, China) on the QuantStudio 5 applied biosystems (Thermo scientific, USA). Relative mRNA levels were calculated using the 2−ΔΔCT method, and HPRT was used as a reference for gene expression normalization. Data were presented as the gene fold change against their respective expression in the control arm.

The subject of assay [6] is ALPK1-dependent gene expression in PBMC. Description: Inhibition of ALPK1 in PBMC cells (gene mRNA). To be noted: SD rats, 10 mpk oral, 2 h before ALPK1 agonist ip, blood 3 h after agonist, compared with vehicle group. In kind it is in vivo, Sprague-Dawley (SD) rats. From the text: We examined whether ALPK1 inhibitors can suppress ALPK1-dependent activation of a set of such genes in rats. Animals were orally administered compound T007 and ALPK1-dependent gene expression was induced by intraperitoneal administration of the ALPK1 agonist, D-glycero-D-manno-6-fluoro-heptose-lo-S-ADP. PBMCs were collected and gene expression analyzed, as described in more detail below.
Thirty-six male Sprague-Dawley (SD) rats were randomly divided into six groups. A first control group (“normal”) was administered vehicle (0.5% MC) orally, followed 2 hours later with PBS administered by intraperitoneal injection (ip). A second control group (“vehicle”) was administered vehicle (0.5% MC) orally, followed 2 hours later by ip administration of the ALPK1 agonist, D-glycero-D-manno-6-fluoro-heptose-1β-S-ADP (50 ppk). Treatment groups were administered ALPK1 inhibitors (10 mpk) orally, followed 2 hours later by ip administration of the ALPK1 agonist. […] RNA was isolated and samples were analyzed by RT-PCR for gene expression. […] Quantitative PCR was conducted using AceQ qPCR SYBR Green Master Mix Kit (Vazvme, Nanjing, China) on the QuantStudio 5 applied biosystems (Thermo scientific, USA). Relative mRNA levels were calculated using the 2−ΔΔCT method, and HPRT was used as a reference for gene expression normalization. […]

Where a name gives a salt, the structure may show the parent alone.

T237M hALPK1 mutant (HEK293 A2 cells), sequence (Q96QP1 whole entry T237M): as the sequence (Q96QP1 whole entry V1092A) above, with T237M, A1092V counted along it
ALPK1, sequence (Q96QP1 whole entry): as the sequence (Q96QP1 whole entry V1092A) above, with A1092V counted along it

By inhibition is commonly meant the percentage by which the read-out fell short of the control. A high value points to a response far below the control. In assay [1], `C#Cc1cccc2sc(NC(=O)c3c(Cl)cc(N4CCNCC4)cc3Cl)nc12` [Compound T048, 2,6-dichloro-N-(4-ethynylbenzo[d]thiazol-2-yl)-4-(piperazin-1-yl)benzamide] came in with an inhibition at 6 µM of 66%.

`COc1cccc2sc(NC(=O)c3c(F)cc(N4CCNCC4)cc3F)nc12` [Compound T017, 2,6-difluoro-N-(4-methoxybenzo[d]thiazol-2-yl)-4-(piperazin-1-yl)benzamide hydrochloride] came in with an inhibition at 6 µM in assay [2] of 50%.

In general, IC50 refers to the concentration at which inhibition is half-maximal. Consider `O=C(Nc1nc2c(F)cc(F)cc2s1)c1c(F)cc(N2CCNCC2)cc1F` [Compound T035, N-(4,6-difluorobenzo[d]thiazol-2-yl)-2,6-difluoro-4-(piperazin-1-yl)benzamide], for which the IC50 in assay [3] amounted to 1340 nM.

For the molecule `COc1cccc2ccc(NC(=O)c3c(F)cc(N4CCNCC4)cc3F)nc12` [Compound Q001, 2,6-difluoro-N-(8-methoxyquinolin-2-yl)-4-(piperazin-1-yl)benzamide], the inhibition at 6 µM in assay [1] is 69%; in assay [2], 68%.

Regarding `C#Cc1cccc2sc(NC(=O)c3c(C)cc(N4CCNCC4)cc3F)nc12` [Compound T050, N-(4-ethynylbenzo[d]thiazol-2-yl)-2-fluoro-6-methyl-4-(piperazin-1-yl)benzamide], the half-maximal inhibitory concentration (IC50) in assay [3] came out at 15 nM.

`COc1cccc2ccc(NC(=O)c3c(F)ccc(N4CCNCC4)c3F)nc12` [Compound Q005, 2,6-difluoro-N-(8-methoxyquinolin-2-yl)-3-(piperazin-1-yl)benzamide] yielded an inhibition at 6 µM in assay [2] of 52%.

With `C#Cc1cccc2sc(NC(=O)c3c(F)cc(N4CCNCC4)cc3F)nc12` [Compound T007, N-(4-ethynylbenzo[d]thiazol-2-yl)-2,6-difluoro-4-(piperazin-1-yl)benzamide], 6 µM produced 91% inhibition in assay [1]. Moreover, the IC50 in assay [4] worked out at 21 nM. Moreover, in assay [5], the “mRNA expression of aorta IL-6, CXCL-1, CXCL-10, CCL-2” value is “significantly decreased”; the “mRNA expression of cardiac muscle TNF-α, IL-1b, IL-6, CXCL-1, CXCL-10, CXCL-11, CCL-2 and CCL-5” value is listed as “significantly decreased”; the “mRNA expression of coronary artery TNF-α, CXCL-1, CCL-2 and CCL-7” value was “significantly decreased”. Moreover, in assay [2], 6 µM produced 95% inhibition. The “mRNA expression of PBMC CXCL-1” value in assay [6] is listed as “significantly decreased”.
